Measured values reported in patent US12426598B2, “Method for controlling herbicide-resistant weed” (SUMITOMO CHEMICAL COMPANY, LIMITED, priority 2019, dated 2025).

Legend:
[1] = system: PPO inhibitor-resistant weeds; test: Pot tests with crops in greenhouse (Examples 73 to 2304)
Method: On the same day, compound X is applied to the surface of soil so that the application rate of the compound X is 10, 20, 40, or 80 g/ha and the spray liquid amount is 200 L/ha. The plastic pot is then placed in a greenhouse, and at 7 days after the application, soybeans are seeded, and further at 14 days after seeding the soybeans, the effect on the weeds and crop injuries on the soybeans are investigated.
On the same day, compound X is applied to the surface of soil so that the application rate of the compound X is 10, 20, 40, or 80 g/ha and the spray liquid amount is 200 L/ha. The soybeans are then cultivated in a greenhouse, and at 21 days after seeding, the effect on the weeds and crop injuries on the soybeans are investigated.
The soybeans are then cultivated in a greenhouse, and at 21 days after seeding, compound X is applied to the stem and leaf so that the application rate of the compound X is 10, 20, 40, or 80 g/ha and the spray liquid amount is 200 L/ha. Further, the soybeans are cultivated in the greenhouse, and at 14 days after the application of compound X, the effect on the weeds and crop injuries on the soybeans are investigated.

[2] = system: palmer amaranth containing a Gly399Ala mutation in PPO2; test: Foliar spray pot test in greenhouse, herbicidal effect; format: in vivo, Amaranthus palmeri; details: 200 L/ha, rating 0 to 100
[3] = system: waterhemp containing a Gly210 deficiency in PPO2; test: as above; format: in vivo, Amaranthus tuberculatus; details: 200 L/ha, rating 0 to 100
[4] = Examples 289 to 432: as Examples 1 to 144, XtendiMax added at 1 pint/acre (560 g/ha)
[5] = Examples 433 to 576: as Examples 1 to 144, RoundupPowerMax 32 fluid ounce/acre and XtendiMax 1 pint/acre added
[6] = Example 2305: plant height 10 cm, sprayed 5 g/ha, 14 days after
[7] = Example 2306: plant height 30 cm, sprayed 20 g/ha, 7 days after

| SMILES | effect on the weeds [1, 4] | effect on the weeds [1, 5] | Herbicidal effect [2, 6] | Herbicidal effect [2, 7] | Herbicidal effect [3, 6] | Herbicidal effect [3, 7] | effect on the weeds ([1]; Examples 73 to 144: as Examples 1 to 72, compound Y instead of compound X) |
| --- | --- | --- | --- | --- | --- | --- | --- |
| CCOC(=O)COc1ccccc1Oc1nc(-n2c(=O)cc(C(F)(F)F)n(C)c2=O)c(F)cc1Cl [compound X] | effective control effect | effective control effect | 100 | 97 | 60 | 45 | – |
| CCOC(=O)COc1ncccc1Oc1nc(-n2c(=O)cc(C(F)(F)F)n(C)c2=O)c(F)cc1Cl [compound Y] | effective control effect | effective control effect | – | – | – | – | effective control effect |
